In patent publication US20120309796A1, “BENZOCYCLOHEPTENE ACETIC ACIDS” (priority 2011, published 2012):

Target: T1, human CRTH2 (Homo sapiens, UniProt Q9Y5Y4)
T1 sequence (Q9Y5Y4 1-395): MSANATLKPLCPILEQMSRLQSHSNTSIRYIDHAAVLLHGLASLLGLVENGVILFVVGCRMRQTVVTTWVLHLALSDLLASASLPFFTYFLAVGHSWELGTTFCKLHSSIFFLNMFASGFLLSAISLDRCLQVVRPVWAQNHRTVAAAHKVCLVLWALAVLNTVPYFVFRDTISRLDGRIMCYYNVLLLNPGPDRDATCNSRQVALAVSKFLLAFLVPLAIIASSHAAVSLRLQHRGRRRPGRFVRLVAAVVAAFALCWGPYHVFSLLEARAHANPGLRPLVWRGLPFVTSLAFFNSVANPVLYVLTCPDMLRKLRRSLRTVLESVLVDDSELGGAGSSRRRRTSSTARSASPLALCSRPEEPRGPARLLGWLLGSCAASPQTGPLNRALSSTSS
Assay: Calcium Flux Assay Using Fluorometric Imaging Plate Reader (FLIPR)
Type: cell-based
Parameters: expressed in transfected cells; host or cells: CHO-K1 previously transfected with G-alpha 16
Details: CHO-K1 cells with G-alpha 16 and human CRTH2; inhibition of DK-PGD2 ligand-induced Ca2+ flux
Procedure: CHO-K1 cells previously transfected with G-alpha 16 were subsequently transfected with the human CRTH2 receptor and the neomycin resistance gene. Following selection in 800 μg/mL G418 (geneticin), individual clones were assayed for their receptor expression based on staining with an anti human CRTH2 IgG, followed by assaying for their response to 13,14-dihydro-15-keto Prostaglandin D2 (DK-PDG2) (ligand) in the Ca^2+ Flux assay. Positive clones were then cloned by limiting dilution cloning. The transfected cells were cultured in Ham's F-12 medium supplemented with 10% fetal bovine serum, 2 mM glutamine, 100 U/mL penicillin/100 μg/mL streptomycin, 200 μg/mL hygromycin B, and 800 μg/mL G418 (geneticin). Cells were harvested with trypsin-EDTA (trypsin-ethylenediaminetetraacetic acid) and counted using ViaCount® reagent (from Guava Technologies, Inc. which contains two DNA-binding dyes that enable the reagent user to distinguish between viable and non-viable cells). The cell suspension volume was adjusted to 2.5×10^5 cells/mL with complete growth media. Aliquots of 50 μL were dispensed into BD Falcon™ 384 well black/clear microplates (from BD Biosciences, a division of Becton, Dickinson and Company) and the microplates were placed in a 37° C. CO2 incubator overnight. The following day, the microplates were used in the assay.
Loading Buffer containing dye (from the FLIPR® Calcium 3 Assay Kit from Molecular Devices, a division of MDS Analytical Technologies and MDS Inc.) was prepared by dissolving the contents of one bottle into 200 mL Hank's Balanced Salt Solution containing 20 mM HEPES (4-(2-hydroxyethyl)-1-piperazineethanesulfonic acid) and 2.5 mM probenecid. Growth media was removed from the cell plates and 25 μL of Hank's Balanced Salt Solution (HBSS) containing 20 mM HEPES, 0.05% BSA and 2.5 mM probenecid was added to each well followed by 25 μL of diluted dye using a Multidrop dispenser. The plates were then incubated for 1 hour at 37° C.
During the incubation, test compound plates were prepared by adding 90 μL of HBSS/20 mM HEPES/0.005% BSA buffer to the 2 μL of serial diluted compounds. To prepare serial diluted compounds, 20 mM stocks of compounds were dissolved in 100% DMSO. The compound dilution plate was set up as follows: well #1 received 5 μL of compound plus 10 μL of DMSO. Wells 2-10 received 10 μL of DMSO. 5 μL was mixed and transferred from well #1 into well #2. 1:3 serial dilutions were continued out 10 steps. 2 μl of diluted compound was transferred into duplicate wells of a 384 well “assay plate” and then 90 μL of buffer was added.
After incubation, both the cell and “assay plate” plates were brought to the fluorometric imaging plate reader (FLIPR®) and 20 μL of the diluted compounds were transferred to the cell plates by the FLIPR®. Plates were then incubated for 1 hour at room temperature. After the 1 hour incubation, plates were returned to the FLIPR® and 20 μL of 4.5× concentrated ligand was added to the cell plates. During the assay, fluorescence readings were taken simultaneously from all 384 wells of the cell plate every 1.5 seconds. Five readings were taken to establish a stable baseline, then 20 μL of sample was rapidly (30 μL/sec) and simultaneously added to each well of the cell plate. The fluorescence was continuously monitored before, during and after sample addition for a total elapsed time of 100 seconds. Responses (increase in peak fluorescence) in each well following agonist addition were determined. The initial fluorescence reading from each well, prior to ligand stimulation, was used as a zero baseline value for the data from that well. The responses were expressed as % inhibition of the buffer control. […]

IC50	SMILES
114 nM	O=C(O)COc1cccc2c1CCCCC2NS(=O)(=O)c1cc(C(F)(F)F)cc(C(F)(F)F)c1 (centres unmarked) [Example 1, [5-(3,5-Bis-trifluoromethyl-benzenesulfonylamino)-6,7,8,9-tetrahydro-5H-benzocyclohepten-1-yloxy]-acetic acid]
188 nM	O=C(O)COc1cccc2c1CCCCC2NS(=O)(=O)c1cc(C(F)(F)F)cc(C(F)(F)F)c1 (single isomer, unassigned) [Example 46, [5-(3,5-Bis-trifluoromethyl-benzenesulfonylamino)-6,7,8,9-tetrahydro-5H-benzocyclohepten-1-yloxy]-acetic acid]
